# Data reported in patent publication US20230382925A1, “MODULATORS OF CYSTIC FIBROSIS TRANSMEMBRANE CONDUCTANCE REGULATOR” (VERTEX PHARMACEUTICALS INCORPORATED, priority 2020, published 2023).
# “And” between values parts separate entries of the source, which are not always exact repeats. Equal values may be shown once. Read-outs that look alike come from different tables or passages of the source.
# Legend:
# [1] = amide bond, 13-membered ring, DMF
# CFTR = molecular target: T1, CFTR (Homo sapiens, UniProt P13569, DEL508-508); test: HBE assay: Ussing chamber assay of CFTR-mediated short-circuit currents (F508del/MF-HBE, with 1 μM Ivacaftor); type: cell-based; settings: F508del/MF-HBE cells, 18-24 hours, 20% human serum; for EC50: range of concentrations with 1 μM Ivacaftor; for HBE Max Activity: with 1 μM Ivacaftor, compared to known Vertex corrector with 18 μM Tezacaftor and 1 μM Ivacaftor; for HBE Activity at 10 μM: single fixed concentration of 10 μM with 1 μM Ivacaftor
# T1 construct: human bronchial epithelial (HBE) cells derived from CF subjects heterozygous for F508del; endogenous in cells; host or cells: primary human bronchial epithelial cells from CF subjects (F508del/MF-HBE)
# T1 sequence (P13569 with tags, fused parts or gaps DEL508-508): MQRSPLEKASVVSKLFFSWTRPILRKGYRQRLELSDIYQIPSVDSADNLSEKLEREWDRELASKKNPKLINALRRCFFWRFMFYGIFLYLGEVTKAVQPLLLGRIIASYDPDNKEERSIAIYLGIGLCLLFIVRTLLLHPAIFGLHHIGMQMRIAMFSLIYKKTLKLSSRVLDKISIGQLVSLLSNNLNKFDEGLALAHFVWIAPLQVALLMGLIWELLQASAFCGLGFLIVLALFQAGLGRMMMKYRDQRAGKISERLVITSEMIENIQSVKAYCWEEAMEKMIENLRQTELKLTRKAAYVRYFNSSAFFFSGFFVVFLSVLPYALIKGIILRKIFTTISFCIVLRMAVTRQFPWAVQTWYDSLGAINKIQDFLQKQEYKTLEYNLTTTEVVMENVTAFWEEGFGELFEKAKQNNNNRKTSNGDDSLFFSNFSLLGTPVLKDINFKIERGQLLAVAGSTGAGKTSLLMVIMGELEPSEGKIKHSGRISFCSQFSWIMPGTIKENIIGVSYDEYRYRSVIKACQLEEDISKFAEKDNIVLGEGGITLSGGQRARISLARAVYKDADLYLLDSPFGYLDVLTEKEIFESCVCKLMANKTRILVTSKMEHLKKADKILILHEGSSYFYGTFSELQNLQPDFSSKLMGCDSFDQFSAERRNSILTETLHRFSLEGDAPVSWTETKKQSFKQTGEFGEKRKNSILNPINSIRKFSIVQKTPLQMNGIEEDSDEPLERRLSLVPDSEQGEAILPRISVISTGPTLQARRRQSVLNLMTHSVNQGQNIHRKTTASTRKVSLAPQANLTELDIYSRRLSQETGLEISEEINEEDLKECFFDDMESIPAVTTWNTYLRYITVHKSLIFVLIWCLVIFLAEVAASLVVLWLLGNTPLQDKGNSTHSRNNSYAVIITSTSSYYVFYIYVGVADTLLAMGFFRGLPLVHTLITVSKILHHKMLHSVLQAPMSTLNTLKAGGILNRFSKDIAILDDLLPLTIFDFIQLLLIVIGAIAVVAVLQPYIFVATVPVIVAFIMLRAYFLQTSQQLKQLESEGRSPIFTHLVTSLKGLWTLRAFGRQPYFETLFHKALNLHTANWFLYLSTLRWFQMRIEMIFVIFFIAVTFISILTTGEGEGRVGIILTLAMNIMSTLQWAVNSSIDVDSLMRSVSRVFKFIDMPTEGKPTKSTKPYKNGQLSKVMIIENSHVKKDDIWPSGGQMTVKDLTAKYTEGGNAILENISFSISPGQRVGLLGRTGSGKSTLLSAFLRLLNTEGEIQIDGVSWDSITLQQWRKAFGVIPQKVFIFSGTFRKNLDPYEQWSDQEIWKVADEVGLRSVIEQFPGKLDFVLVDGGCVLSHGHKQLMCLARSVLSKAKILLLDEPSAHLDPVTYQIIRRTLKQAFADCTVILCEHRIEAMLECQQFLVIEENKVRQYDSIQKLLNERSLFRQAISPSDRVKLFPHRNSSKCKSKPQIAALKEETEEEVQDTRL
# Protocol: 1. Ussing Chamber Assay of CFTR-mediated short-circuit currents
# Ussing chamber experiments were performed using human bronchial epithelial (HBE) cells derived from CF subjects heterozygous for F508del and a minimal function CFTR mutation (F508del/MF-HBE) and cultured as previously described (Neuberger T, Burton B, Clark H, Van Goor F Methods Mol Biol 2011:741:39-54). After four days the apical media was removed, and the cells were grown at an air liquid interface for >14 days prior to use.
# To isolate the CFTR-mediated short-circuit (ISC) current, F508del/MF-HBE grown on Costar® Snapwell™ cell culture inserts were mounted in an Ussing chamber and the transepithelial ISC was measured under voltage-clamp recording conditions (Vhold=0 mV) at 37° C. The basolateral solution contained (in mM) 145 NaCl, 0.83 K2HPO4, 3.3 KH2PO4, 1.2 MgCl2, 1.2 CaCl2), 10 Glucose, 10 HEPES (pH adjusted to 7.4 with NaOH) and the apical solution contained (in mM) 145 NaGluconate, 1.2 MgCl2, 1.2 CaCl2), 10 glucose, 10 HEPES (pH adjusted to 7.4 with NaOH) and 30 μM amiloride to block the epithelial sodium channel. Forskolin (20 μM) was added to the apical surface to activate CFTR, followed by apical addition of a CFTR inhibitor cocktail consisting of BPO, GlyH-101, and CFTR inhibitor 172 (each at 20 μM final assay concentration) to specifically isolate CFTR currents. The CFTR-mediated ISC (μA/cm^2) for each condition was determined from the peak forskolin response to the steady-state current following inhibition.
# 2. Identification of Corrector Compounds
# The activity of the CFTR corrector compounds on the CFTR-mediated ISC was determined in Ussing chamber studies as described above. The F508del/MF-HBE cell cultures were either incubated with the corrector compounds at a range of concentrations in combination with 1 μM Ivacaftor or were incubated with the corrector compounds at a single fixed concentration of 10 μM in combination with 1 μM Ivacaftor for 18-24 hours at 37° C. and in the presence of 20% human serum. The concentration of corrector compounds with 1 μM Ivacaftor during the 18-24 hours incubations was kept constant throughout the Ussing chamber measurement of the CFTR-mediated ISC to ensure compounds were present throughout the entire experiment.
SMILES,EC50 (CFTR),HBE Max Activity (CFTR),further results
Cc1cccc(C)c1-c1cc2nc(n1)NS(=O)(=O)c1cccc(c1)C(=O)N(C1CC(NC(=O)OC(C)(C)C)C1)[C@H](CC(C)C)CO2 (stereo partly drawn),–,–,"ring closure, yield after HPLC ([1]; from Cc1cccc(C)c1-c1cc(OC[C@@H](CC(C)C)NC2CC(NC(=O)OC(C)(C)C)C2)nc(NS(=O)(=O)c2cccc(C(=O)O)c2)n1, HATU/DIPEA, 22.4 mM, 6.0 h, 2 steps): 7% and 6%"
"Cc1cccc(C)c1-c1cc2nc(n1)NS(=O)(=O)c1cccc(c1)C(=O)N(C1CC3(CC(N4C[C@@H](C)O[C@@H](C)C4)C3)C1)[C@H](CC(C)(C)C)CO2 (single isomer, unassigned) [Compound 86]",< 1 µM,+++ (+++ is >60%),–
"Cc1cccc(C)c1-c1cc2nc(n1)NS(=O)(=O)c1cccc(c1)C(=O)N(C1CC3(CC(N4C[C@@H](C)O[C@@H](C)C4)C3)C1)[C@H](CC(C)(C)C)CO2 (single isomer, unassigned) [Compound 87]",< 1 µM,+++ (+++ is >60%),–
Cc1cccc(C)c1-c1cc2nc(n1)NS(=O)(=O)c1cccc(c1)C(=O)N(C1CC(OC(C)C)C1)[C@H](CC1(C(F)(F)F)CC1)CO2 (stereo partly drawn),–,–,"ring closure, yield after HPLC ([1]; from Cc1cccc(C)c1-c1cc(OC[C@@H](CC2(C(F)(F)F)CC2)NC2CC(OC(C)C)C2)nc(NS(=O)(=O)c2cccc(C(=O)O)c2)n1, HATU/TEA, 44.0 mM, 16.0 h): 18%"
Cc1cccc(CO)c1-c1cc2nc(n1)NS(=O)(=O)c1cccc(c1)C(=O)N([C@H]1CC3(C[C@H](NC(=O)OC(C)C)C3)C1)[C@H](CC(C)(C)C)CO2 (stereo in doubt) [Compound 402],–,–,HBE Activity at 10 μM (CFTR): ++ (++ is 30-60%)
Cc1cccc(C)c1-c1cc2nc(n1)NS(=O)(=O)c1cccc(n1)C(=O)N(C1CC3(C1)CC(C(C)(C)O)C3)[C@H](CC(C)(C)C)CO2 (stereo partly drawn),–,–,"ring closure, yield after HPLC ([1]; from Cc1cccc(C)c1-c1cc(OC[C@@H](CC(C)(C)C)NC2CC3(C2)CC(C(C)(C)O)C3)nc(NS(=O)(=O)c2cccc(C(=O)O)n2)n1, HATU/DIEA, 26.7 mM, 25.0 °C, 17.0 h): 28%"
Cc1cccc(CO)c1-c1cc2nc(n1)NS(=O)(=O)c1cccc(c1)C(=O)N(C1CC3(CC(NC(=O)OC(C)C)C3)C1)[C@H](CC(C)(C)C)CO2 (stereo partly drawn) [Compound 209],–,–,HBE Activity at 10 μM (CFTR): ++ (++ is 30-60%)
Cc1cccc(C)c1-c1cc2nc(n1)NS(=O)(=O)c1cccc(c1)C(=O)N(C1CC(CNC(=O)OC(C)(C)C)C1)[C@H](CC(C)C)CO2 (stereo partly drawn),–,–,"ring closure, yield after HPLC ([1]; from Cc1cccc(C)c1-c1cc(OC[C@@H](CC(C)C)NC2CC(CNC(=O)OC(C)(C)C)C2)nc(NS(=O)(=O)c2cccc(C(=O)O)c2)n1, HATU/DIEA, 7.0 h, 2 steps): 15% and 19%"
COC(=O)C1CC2(C1)CC(N1C(=O)c3cccc(c3)S(=O)(=O)Nc3nc(cc(-c4c(C)cccc4C)n3)OC[C@H]1CC1(C(F)(F)F)CC1)C2 (stereo partly drawn),–,–,"ring closure, yield after HPLC ([1]; from COC(=O)C1CC2(CC(N[C@@H](COc3cc(-c4c(C)cccc4C)nc(NS(=O)(=O)c4cccc(C(=O)O)c4)n3)CC3(C(F)(F)F)CC3)C2)C1, HATU/TEA, 25.0 °C, 16.0 h, 2 steps): 32%"
Cc1cccc(C)c1-c1cc2nc(n1)NS(=O)(=O)c1cccc(c1)C(=O)N([C@H]1CC3(C[C@H](N(C)CCC(F)(F)F)C3)C1)[C@H](CC1(C(F)(F)F)CC1)CO2 (stereo in doubt) [Compound 219],–,–,HBE Activity at 10 μM (CFTR): +++ (+++ is >60%)
"Cc1cccc(C)c1-c1cc2nc(n1)NS(=O)(=O)c1cccc(c1)C(=O)N(c1cn[nH]c1)[C@H](CC(C)C)CO2 [Compound 99, (11R)-6-(2,6-Dimethylphenyl)-11-isobutyl-2,2-dioxo-12-(1H-pyrazol-4-yl)-9-oxa-2λ^6-thia-3,5,12,19-tetrazatricyclo[12.3.1.14,8]nonadeca-1(18),4(19),5,7,14,16-hexaen-13-one]",3 to 30 µM,+++ (+++ is >60%),–
Cc1cccc(C)c1-c1cc2nc(n1)NS(=O)(=O)c1cccc(c1)C(=O)N(C1CC(C(=O)OC(C)(C)C)C1)[C@H](CC(C)C)CO2 (stereo partly drawn),–,–,"ring closure, yield after HPLC ([1]; from Cc1cccc(C)c1-c1cc(OC[C@@H](CC(C)C)NC2CC(C(=O)OC(C)(C)C)C2)nc(NS(=O)(=O)c2cccc(C(=O)O)c2)n1, HATU/DIEA, 16.0 h, 2 steps): 79%"
"Cc1cccc(C)c1-c1cc2nc(n1)NS(=O)(=O)c1cccc(c1)C(=O)N([C@H]1C[C@](C)(O)C1)[C@H](CC(C)(C)C)CO2 (single isomer, unassigned) [Compound 139]",< 1 µM,+++ (+++ is >60%),–
"Cc1cccc(C)c1-c1cc2nc(n1)NS(=O)(=O)c1cccc(c1)C(=O)N([C@H]1C[C@@](O)(Cc3ccccc3)C1)[C@H](CC(C)(C)C)CO2 (single isomer, unassigned) [Compound 140]",< 1 µM,+++ (+++ is >60%),–
Cc1cccc(C)c1-c1cc2nc(n1)NS(=O)(=O)c1cccc(c1)C(=O)N(C1CC3(CCCCN3C(=O)CO)C1)[C@H](CC(C)(C)C)CO2 (stereo in doubt) [Compound 203],–,–,HBE Activity at 10 μM (CFTR): +++ (+++ is >60%)
Cc1cccc(C)c1-c1cc2cc(n1)NS(=O)(=O)c1cccc(c1)C(=O)N(C1CC3(CCN(C(=O)OC(C)(C)C)CC3)C1)[C@H](CC(C)C)CO2,–,–,"ring closure, yield after HPLC ([1]; from Cc1cccc(C)c1-c1cc(OC[C@@H](CC(C)C)NC2CC3(CCN(C(=O)OC(C)(C)C)CC3)C2)cc(NS(=O)(=O)c2cccc(C(=O)O)c2)n1, HATU/DIEA, 34.7 mM, 14.0 h): 16%"
Cc1cccc(CO)c1-c1cc2nc(n1)NS(=O)(=O)c1cccc(c1)C(=O)N([C@H]1CC3(C[C@H](NC(=O)OC(C)C)C3)C1)[C@H](CC(C)(C)C)CO2 (stereo in doubt) [Compound 403],–,–,HBE Activity at 10 μM (CFTR): ++ (++ is 30-60%)
Cc1cccc(C)c1-c1cc2nc(n1)NS(=O)(=O)c1cccc(c1)C(=O)N(C1CC3(CCN(C)CC3)C1)[C@@H]1CN(C3CC4(CCCCC4)C3)C[C@H]1O2 (stereo partly drawn) [Compound 473],–,–,HBE Activity at 10 μM (CFTR): +++ (+++ is >60%)

# Further lines, with some results ahead:
EC50 (CFTR),HBE Max Activity (CFTR),SMILES,further results
< 1 µM,+++ (+++ is >60%),Cc1cccc(C)c1-c1cc2nc(n1)NS(=O)(=O)c1cccc(c1)C(=O)N(C1CC3(CCCN3C(=O)CO)C1)[C@H](CC(C)(C)C)CO2 (stereo in doubt) [Compound 206],–
< 1 µM,+++ (+++ is >60%),Cc1cccc(C)c1-c1cc2nc(n1)NS(=O)(=O)c1cccc(c1)C(=O)N([C@H]1C[C@@]3(C[C@H](N(C)CC(F)(F)F)C3)C1)[C@H](CC1(C(F)(F)F)CC1)CO2 (stereo partly drawn) [Compound 221],–
< 1 µM,+++ (+++ is >60%),Cc1cccc(C)c1-c1cc2nc(n1)NS(=O)(=O)c1cccc(c1)C(=O)N([C@H]1C[C@@]3(C[C@H](NCCC(F)(F)F)C3)C1)[C@H](CC1(C(F)(F)F)CC1)CO2 (stereo partly drawn) [Compound 218],–
< 1 µM,+++ (+++ is >60%),"Cc1cccc(C)c1-c1cc2nc(n1)NS(=O)(=O)c1cccc(c1)C(=O)N(c1cn[nH]c1)[C@H](CC(C)(C)C)CO2 [Compound 185, (11R)-6-(2,6-Dimethylphenyl)-11-(2,2-dimethylpropyl)-2,2-dioxo-12-(1H-pyrazol-4-yl)-9-oxa-2λ^6-thia-3,5,12,19-tetrazatricyclo[12.3.1.14,8]nonadeca-1(18),4(19),5,7,14,16-hexaen-13-one]",–
< 1 µM,+++ (+++ is >60%),Cc1cccc(C)c1-c1cc2nc(n1)NS(=O)(=O)c1cccc(c1)C(=O)N(C1CC3(C1)CC(O)(Cc1ccccc1)C3)[C@H](CC(C)(C)C)CO2 (stereo in doubt) [Compound 431],–
< 1 µM,+++ (+++ is >60%),Cc1cccc(C)c1-c1cc2nc(n1)NS(=O)(=O)c1cccc(c1)C(=O)N(c1cnn(CC(=O)OC(C)(C)C)c1)[C@H](CC(C)(C)C)CO2 [Compound 427],–
< 1 µM,+++ (+++ is >60%),"Cc1cccc(C)c1-c1cc2nc(n1)NS(=O)(=O)c1cccc(c1)C(=O)N(C1CC3(CC(N4CCOCC4)C3)C1)[C@H](CC(C)(C)C)CO2 (single isomer, unassigned) [Compound 432]",–
< 1 µM,+++ (+++ is >60%),Cc1cccc(C)c1-c1cc2nc(n1)NS(=O)(=O)c1cccc(c1)C(=O)N(C1CC3(CCCN3C(=O)CO)C1)[C@H](CC(C)(C)C)CO2 (stereo in doubt) [Compound 205],–
